Source: ChEMBL document CHEMBL1142797, “2-Aminoquinazoline inhibitors of cyclin-dependent kinases” (Bioorg Med Chem Lett, 2005)

Legend:
[1] = biological target: Cyclin-dependent kinase 4/cyclin D1 (Homo sapiens, UniProt P11802); assay: Inhibitory concentration against CDK4/ Cyclin D; format: protein-complex assay
[2] = biological target: Cyclin-dependent kinase 1/cyclin B1 (Homo sapiens, UniProt P06493); assay: Inhibitory concentration against CDK1/ Cyclin B; format: protein-complex assay
[3] = biological target: Cyclin-dependent kinase 2/cyclin E1 (Homo sapiens, UniProt P24941); assay: Inhibitory concentration against CDK2/ Cyclin E; format: protein-complex assay
[4] = Inhibitory concentration against CDK2/ Cyclin A
[5] = Distribution coefficient at pH 7.4; format: physicochemical; settings: octanol/water
[6] = test system: HCT-116; assay: Antiproliferative activity against HCT116 cell lines of human; format: functional, cell-based

Sequence of Cyclin-dependent kinase 1/cyclin B1 (P06493 whole entry): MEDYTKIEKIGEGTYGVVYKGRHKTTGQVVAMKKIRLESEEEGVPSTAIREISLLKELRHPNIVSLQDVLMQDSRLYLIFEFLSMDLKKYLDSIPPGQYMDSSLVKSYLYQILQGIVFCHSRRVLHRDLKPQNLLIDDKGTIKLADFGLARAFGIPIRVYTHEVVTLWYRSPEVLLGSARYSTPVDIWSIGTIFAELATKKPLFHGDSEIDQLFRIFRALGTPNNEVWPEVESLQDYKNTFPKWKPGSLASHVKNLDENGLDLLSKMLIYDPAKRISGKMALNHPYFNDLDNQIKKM
Sequence of Cyclin-dependent kinase 1/cyclin B1 (P14635 whole entry, further chain): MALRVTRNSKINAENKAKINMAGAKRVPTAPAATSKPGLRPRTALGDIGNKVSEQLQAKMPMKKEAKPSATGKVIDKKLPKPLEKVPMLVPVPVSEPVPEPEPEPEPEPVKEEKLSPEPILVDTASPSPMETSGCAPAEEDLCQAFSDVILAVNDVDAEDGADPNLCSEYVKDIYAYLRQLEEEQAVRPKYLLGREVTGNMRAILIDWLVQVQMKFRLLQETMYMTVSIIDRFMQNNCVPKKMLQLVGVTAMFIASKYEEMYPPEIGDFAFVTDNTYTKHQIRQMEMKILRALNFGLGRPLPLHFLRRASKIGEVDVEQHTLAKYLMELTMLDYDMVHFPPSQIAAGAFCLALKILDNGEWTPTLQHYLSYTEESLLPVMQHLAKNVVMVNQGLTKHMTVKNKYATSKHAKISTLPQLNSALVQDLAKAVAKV
Sequence of Cyclin-dependent kinase 4/cyclin D1 (P11802 whole entry): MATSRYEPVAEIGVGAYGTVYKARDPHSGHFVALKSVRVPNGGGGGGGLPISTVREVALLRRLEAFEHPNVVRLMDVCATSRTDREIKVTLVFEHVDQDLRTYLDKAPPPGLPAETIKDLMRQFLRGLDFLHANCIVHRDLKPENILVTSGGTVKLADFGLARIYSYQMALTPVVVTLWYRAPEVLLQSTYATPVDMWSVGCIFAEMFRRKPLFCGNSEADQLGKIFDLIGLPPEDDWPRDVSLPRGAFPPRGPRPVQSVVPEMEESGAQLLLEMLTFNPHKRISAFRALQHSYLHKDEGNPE
Sequence of Cyclin-dependent kinase 4/cyclin D1 (P24385 whole entry, further chain): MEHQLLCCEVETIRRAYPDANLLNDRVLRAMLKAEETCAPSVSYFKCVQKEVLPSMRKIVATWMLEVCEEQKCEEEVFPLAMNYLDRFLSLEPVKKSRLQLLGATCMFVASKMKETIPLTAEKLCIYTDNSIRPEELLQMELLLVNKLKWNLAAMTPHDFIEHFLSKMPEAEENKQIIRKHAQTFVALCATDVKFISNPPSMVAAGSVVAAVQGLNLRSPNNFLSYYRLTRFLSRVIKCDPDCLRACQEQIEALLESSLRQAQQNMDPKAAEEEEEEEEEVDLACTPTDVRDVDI

Structure (SMILES) | IC50 [1] [µM] | IC50 [2] [µM] | IC50 [3] [µM] | IC50 [4] [µM] | logD [5] | IC50 [6] [µM]
Oc1ccc2cnc(Nc3ccc(N4CCOCC4)cc3)nc2c1C1CCCC1 | 0.003 | 1.94 | 0.635 | 0.18 |  | 
COc1ccc2cnc(Nc3ccc(N4CCNCC4)cc3)nc2c1C1CCCC1 |  |  |  | 0.028 |  | 
CC(C)c1c(O)ccc2cnc(Nc3ccccc3)nc12 |  |  |  | 0.25 |  | 
COc1cc(C)c2cnc(Nc3ccc(N4CCN(C(C)=O)CC4)cc3)nc2c1C1CCCC1 | 4.13 | > 5 | > 5 | > 5 | 3.77 | 
COc1ccc2cnc(Nc3ccc(N4CCC(N)C4)cc3)nc2c1C1CCCC1 (stereo unspecified) |  |  | 0.775 | 0.203 |  | 
COc1ccc2cnc(Nc3ccc(N4CCCC4)cc3)nc2c1C(C)C |  | > 5 | > 5 | 1.6 |  | 
COc1ccc2cnc(Nc3ccc(N4CCN(C(C)=O)CC4)cc3)nc2c1C1CCCC1 |  | > 5 |  |  |  | 
COc1ccc2cnc(Nc3ccc(N4CCOCC4)cc3)nc2c1C(C)C |  |  |  | 0.665 |  | 
COc1ccc2cnc(Nc3ccc(N4CCNCC4)c(F)c3)nc2c1C(C)C | 0.007 | 0.743 | 0.655 | 0.141 |  | 
COc1ccc2cnc(Nc3ccc(N4CCNCC4)cc3)nc2c1C(C)C |  |  |  | 0.185 |  | 
COc1ccc2cnc(Nc3ccc(N4CCNCC4)c(F)c3)nc2c1C1CCCC1 |  |  |  | 0.062 |  | 
Cc1cc(O)c(C2CCCC2)c2nc(Nc3ccc(N4CCNCC4)cc3)ncc12 | 0.02 | > 5 | > 5 | > 5 | 1.39 | 0.1
COc1ccc2cnc(Nc3ccc(N4CCCCC4)cc3)nc2c1C1CCCC1 |  | > 5 | > 5 | 0.384 |  | 
COc1ccc2cnc(Nc3ccccc3)nc2c1C1CCCC1 | 0.166 | 0.801 | 0.65 | 0.202 |  | 
COc1ccc2cnc(Nc3ccc(N4CCC(N)C4)cc3)nc2c1C(C)C (stereo unspecified) |  |  |  | 0.296 |  | 
COc1cc(C)c2cnc(Nc3ccc(N4CCNCC4)cc3)nc2c1C1CCCC1 | 0.055 | > 5 | > 5 | > 5 | 2.32 | 
COc1ccc2cnc(Nc3ccccc3)nc2c1C(C)C |  |  |  | 0.253 |  | 
COc1ccc2cnc(Nc3ccc(N4CCN(C(=O)CN)CC4)cc3)nc2c1C1CCCC1 |  |  |  | 0.095 |  | 
COc1ccc2cnc(Nc3ccc(N4CCN(C(=O)CN)CC4)cc3)nc2c1C(C)C |  |  |  | 0.191 |  | 
Oc1ccc2cnc(Nc3ccc(N4CCNCC4)cc3)nc2c1C1CCCC1 | 0.001 | 0.03 | 0.32 | 0.082 |  | 
Cc1cc(=O)n(C2CCCC2)c2nc(Nc3ccc(N4CCNCC4)cc3)ncc12 |  | > 5 |  |  | 0.63 | 
COc1ccc2cnc(Nc3ccc(N4CCCCC4)cc3)nc2c1C(C)C |  | > 5 |  | 0.41 |  | 
COc1ccc2cnc(Nc3ccc(N4CCCC4)cc3)nc2c1C1CCCC1 |  | > 5 |  | > 5 |  | 
COc1ccc2cnc(Nc3ccc(N4CCOCC4)cc3)nc2c1C1CCCC1 |  |  |  | 0.384 |  | 
Oc1ccc2cnc(Nc3ccc(N4CCNCC4)c(F)c3)nc2c1C1CCCC1 | 0.001 | 0.761 | 0.27 | 0.112 |  | 
